# Reference: patent US20150057346A1, “METHODS OF MAINTAINING INTRAMUSCULAR MYOGLOBIN LEVELS, MAINTAINING MAXIMAL AEROBIC CAPACITY, AND ENHANCING THE OXIDATIVE CAPACITY OF MUSCLE IN A SUBJECT” (ABBOTT LABORATORIES, priority 2013, published 2015)
# Legend:
# [1] = Body composition (lean mass by DXA) over 10 days of bed rest (clinical study); assay type: in vivo, human; conditions: over 10 day bed rest, healthy elderly subjects
# Text: The 24 healthy subjects initially involved in the study were randomized into two groups. Subjects in the treatment group received two β-hydroxy-β-methylbutyrate (HMB) sachets containing 1.5 grams of Ca-HMB (TSI, Salt Lake City, Utah), 4 grams of maltodextrin, and 200 milligrams of calcium with additional sweetener and flavoring agents. Subjects in the control group received two control sachets that were identical to the HMB sachets with the exclusion Ca-HMB. This study was a double-blinded study. Neither the investigators nor the subjects were informed of the identity of any of the study products during the clinical portion of the study. […]
# After a diet stabilization of 5 days (ambulatory period), subjects remained in bed continuously for 10 days. […] Subjects were constantly monitored by nursing staff and received a daily physical examination by the study physician.
# Body weight was measured at baseline and after bed rest to the nearest 0.1 kilogram on an Ohaus scale (Ohaus Corporation, model 15S, Florham Park, N.J.). Nude body weight was calculated as total body weight minus hospital robe weight. Body height was measured to the nearest 0.1 cm without shoes using a stadiometer. Body mass index (BMI) was calculated as weight/height^2 (kg/m^2). […]
# [2] = tested on: Myoglobin; test: Serum myoglobin levels before and after 10 days of bed rest (clinical study, RBM Human DiscoveryMAP); assay type: in vivo
# Procedure: Example 3 describes a clinical study that was conducted to evaluate the effects of 10 days of bed rest on healthy elderly subjects. The exemplary methods are based, at least in part, on inventors' discovery that serum myoglobin levels change by statistically significant amounts in 18 healthy elderly subjects undergoing 10 days of bed rest. The exemplary methods are also based, at least in part, on inventors' discovery that intervention with HMB altered the change in serum myoglobin levels.
# The 24 healthy subjects initially involved in the study were randomized into two groups. Subjects in the treatment group received two β-hydroxy-β-methylbutyrate (HMB) sachets containing 1.5 grams of Ca-HMB (TSI, Salt Lake City, Utah), 4 grams of maltodextrin, and 200 milligrams of calcium with additional sweetener and flavoring agents. Subjects in the control group received two control sachets that were identical to the HMB sachets with the exclusion Ca-HMB. This study was a double-blinded study. Neither the investigators nor the subjects were informed of the identity of any of the study products during the clinical portion of the study. Subjects were instructed to consume a sachet twice daily by mixing a sachet into a non-caloric, non-caffeinated, non-carbonated, non-milk-based beverage of their choice. Treatment with HMB or Control was initiated 5 days prior to bed rest and was continued until the end of the 10 day bed rest period.
# After a diet stabilization of 5 days (ambulatory period), subjects remained in bed continuously for 10 days. While confined to bed rest, subjects were allowed to use the bedside commode for urination or were taken in a wheelchair for toileting. Subjects were given the option of taking a sponge bath or showering in a wheelchair. Prophylactic measures were taken to detect and prevent deep vein thrombosis including a blood D-dimer test followed by an ultrasound examination if D-dimer test was positive, passive range of motion exercise during bed rest, the use of TED hose and SCD over the bed rest period. Subjects were offered medication to help mitigate reflux problems associated with being supine. Subjects were constantly monitored by nursing staff and received a daily physical examination by the study physician.
# Fasted blood samples were collected from subjects on Day 1 of bed rest and at the end of bed rest for measurement of biomarkers, including myoglobin.
# Rules Based Medicine (Myriad RBM, Inc., Austin, Tex.) data generated from the RBM Human DiscoveryMAP v1.0 consists of n=187 biomarkers measured in serum collected at two time points, pre-bed rest and post-bed rest from 18 elderly subjects. The distribution of each marker was evaluated. Each marker has a least detectable dose (LDD) value, defined as the mean+3 standard deviations (SD) of 20 blank samples. For any subject whose marker result was <LDD, the LDD value as provided by RBM was imputed. If the marker result was >LDD, the original result was used. Any marker in which >30% of all subject's results were imputed was excluded from further statistical analyses. Of the initial n=187 RBM markers, n=63 markers from the RBM dataset were excluded from further analyses, leaving n=124 markers for evaluation.
# The Control group was examined to determine the biomarkers that changed over bed rest. Individual univariate dependent t-tests were performed on each of the 124 markers. There were a total of 8 participants who had matched data over bed rest within the Control group.
# In order to assess the changes in the markers over bed rest that may be mediated by HMB intervention, individual univariate ANCOVA analyses were subsequently performed on each of the 13 (unadjusted) significant markers from the multiple dependent t-tests. Using a Bonferonni adjusted p-value of 0.0038 (0.05/13), 10 markers, including myoglobin, were significant.
# [3] = 10 subjects treated with HMB, after 10 days of bed rest
# [4] = serum, pre- to post-bed rest (10 days), n = 10
structure (smiles),measurement,setting,value
"CC(C)(O)CC(=O)O [HMB, β-hydroxy-β-methylbutyrate]",average loss of total lean mass,[1]; p=0.42 paired t-test,-0.17 ± 0.19 kg
same,average loss of leg lean mass,[1]; p=0.65 paired t-test,-0.08 ± 0.17 kg
same,average decrease in blood levels of myoglobin,[2]; [3],10.2 ng/mL
same,decrease in blood levels of myoglobin (percent),[2]; [3],19%
same,Myoglobin Pre-bed rest Mean,"[2]; serum, healthy elderly subjects, n = 10, 1.5 g Ca-HMB sachet twice daily from 5 days prior to bed rest, Day 1 of bed rest",49.3 ng/mL
same,Myoglobin Post-bed rest Mean,"[2]; serum, healthy elderly subjects, n = 10, 1.5 g Ca-HMB sachet twice daily, end of 10 day bed rest",39.1 ng/mL
same,Myoglobin % Change,[2]; [4],−19 ± 6%
same,Myoglobin Change,[2]; [4],-10.2 ± 6.4 ng/mL
